Laboratory results: article PMC4293787 (The Scientific World Journal, 2014)
Converted amounts (≈) assume the structure as drawn. Like-named read-outs stand apart in the source and are kept apart here.

Tests used:
hepatitis B virus (HBV) = experiment: Antiviral test against HBV in HepG 2.2.2.15 cells; format: cell-based, strain ayw1; parameters: SI50: unit not given beside the values; conditions: for SI50: HBV, HepG 2.2.2.15 cells
influenza A H1N1 virus [1] = experiment: Antiviral test against influenza A H1N1 in MDCK cells, visual (cytopathic effect); format: cell-based, strain California 07/2009; parameters: SI50: unit not given beside the values; conditions: for EC50: Influenza A virus, H1N1, MDCK
influenza A H1N1 virus [2] = experiment: Antiviral test against influenza A H1N1 in MDCK cells, neutral red (cytopathic effect); format: cell-based, strain California 07/2009; parameters: SI50: unit not given beside the values; conditions: for EC50: Influenza A virus, H1N1, MDCK
in vitro [3] = conditions: dog, MDCK cells
in vitro [4] = conditions: dog, MDCK cells; remark: listed apart in the source
in vitro [5] = conditions: human
in vitro [6] = conditions: human; remark: listed apart in the source
[7] = test system: herpes simplex virus 1 (HSV-1); experiment: microbe, parasite or virus in culture; format: cell-based, strain E-377; parameters: SI50: unit not given beside the values; conditions: for EC50: Human alphaherpesvirus 1, HFF
[8] = test system: herpes simplex virus 2 (HSV-2); experiment: Antiviral test against HSV-2 in HFF cells (crystal violet); format: cell-based, strain MS; parameters: SI50: unit not given beside the values
[9] = Toxicity (CC50) in the HSV-1 test, HFF cells (crystal violet); conditions: human
[10] = Toxicity (CC50) in the HSV-2 test, HFF cells (crystal violet); conditions: human
vaccinia virus (VV) = experiment: microbe, parasite or virus in culture; format: cell-based, strain Copenhagen; conditions: Orthopoxvirus vaccinia, HFF
[11] = Hepatitis B virus, HepG2 2.2.15

Row | SMILES | EC50 (influenza A H1N1 virus [1]) [µg/mL] | EC50 (influenza A H1N1 virus [2]) [µg/mL] | CC50 (in vitro [3]) [µg/mL] | CC50 (in vitro [4]) [µg/mL] | melting point | SI50 (hepatitis B virus (HBV)) | EC50 (hepatitis B virus (HBV); [11]) [µM] | CC50 (in vitro [6]) [µM] | also measured
1 | Nc1ccn([C@@H]2CS[C@H](CO)O2)c(=O)n1 [Compound 3TC, 3TC, reference compound] | – | – | – | – | – | – | – | – | EC50 (hepatitis B virus (HBV); HBV strain ayw1, drug concentration range 0.063–20 μM, 3TC control range 0.00032–0.1 μM, read-out: EC50): 0.01 µM
2 | O=C(NC1C=CC(O)C1)c1ccccn1 (stereo not drawn) [Compound 13a, N-(4-Hydroxycyclopent-2-enyl)picolinamide] | > 100 | > 100 | > 100 | > 100 | – | – | – | – | –
3 | O=C(NC1C=CC(O)C1)c1cccnc1 (stereo not drawn) [Compound 13b, N-(4-Hydroxycyclopent-2-enyl)nicotinamide] | > 100 | > 100 | > 100 | > 100 | 125 to 127 °C | – | – | – | CC50 (in vitro [5]): > 300 µM
4 | O=C(NC1C=CC(O)C1)c1ccncc1 (stereo not drawn) [Compound 13c, N-(4-Hydroxycyclopent-2-enyl)isonicotinamide] | > 100 | > 100 | > 100 | > 100 | 170 to 175 °C | – | – | – | CC50 (in vitro [5]): > 300 µM
5 | O=C(NC1C=CC(O)C1)c1ccc2ccccc2n1 (stereo not drawn) [Compound 13d, N-(4-Hydroxycyclopent-2-enyl)quinoline-2-carboxamide] | > 100 | > 100 | > 100 | > 100 | 89 to 90 °C | – | – | – | –
6 | O=C(NC1C=CC(O)CC1)c1ccccn1 (stereo not drawn) [Compound 14a, N-(4-Hydroxycyclohex-2-enyl)picolinamide] | > 100 | > 100 | > 100 | > 100 | – | 1 | > 20 | > 20 | –
7 | O=C(NC1C=CC(O)CC1)c1cccnc1 (stereo not drawn) [Compound 14b, N-(4-Hydroxycyclohex-2-enyl)nicotinamide] | > 100 | > 100 | > 100 | > 100 | 95 to 99 °C | 1 | > 20 | > 20 | –
8 | O=C(NC1C=CC(O)CC1)c1ccncc1 (stereo not drawn) [Compound 14c, N-(4-Hydroxycyclohex-2-enyl)isonicotinamide] | > 100 | > 100 | > 100 | > 100 | 245 to 250 °C (dec.) | 1 | 9.64 | > 100 | –
9 | O=C(NC1C=CC(O)CC1)c1ccc2ccccc2n1 (stereo not drawn) [Compound 14d, N-(4-Hydroxycyclohex-2-enyl)quinoline-2-carboxamide] | 37 (≈ 138 µM) | 54 (≈ 201 µM) | – | – | 80 to 84 °C | 1 | > 20 | > 20 | SI50 (influenza A H1N1 virus [1]; influenza A H1N1, MDCK cells, visual): >2.7; SI50 (influenza A H1N1 virus [2]; influenza A H1N1, MDCK cells, neutral red): 1.4
10 | NC(=O)c1ncn([C@@H]2O[C@H](CO)[C@@H](O)[C@H]2O)n1 [Ribavirin, reference compound] | 3.2 (≈ 13.1 µM) | 3.1 (≈ 12.7 µM) | – | – | – | – | – | – | SI50 (influenza A H1N1 virus [1]): >31; SI50 (influenza A H1N1 virus [2]): 14
11 | Nc1nc2c(ncn2COCCO)c(=O)[nH]1 [acyclovir] | – | – | – | – | – | – | – | – | SI50 [7]: > 30; EC50 [7]: 3.29 µM; SI50 [8]: > 27; EC50 ([8]; Human alphaherpesvirus 2, HFF): 3.7 µM; CC50 [9]: > 100 µM; CC50 [10]: > 100 µM
12 | Nc1ccn(C[C@@H](CO)OCP(=O)(O)O)c(=O)n1 [cidofovir] | – | – | – | – | – | > 1 | 180 | – | SI50 ([7]; HSV-1, HFF cells): > 1; EC50 [7]: 180 µM; EC50 (vaccinia virus (VV)): 6.07 µM; CC50 [9]: > 200 µM
